From article PMC3634732, “Chemical Chaperones Exceed the Chaperone Effects of RIC-3 in Promoting Assembly of Functional α7 AChRs” (PLoS ONE, 2013)

Experiments:
Rat α7 AChRs = details: cited from earlier work
[1] = test system: endogenous α7 AChRs in SH-SY5Y neuroblastoma cell line; experiment: Surface 125I αBgt binding in SH-SY5Y cells treated with chemical chaperones; type: cell-based, human
[2] = test system: α7 AChRs in primary cultures of rat hippocampal neurons; experiment: 125I αBgt binding to rat hippocampal neuron cultures; type: cell-based; details: for Increase of α7 AChR expression: VPA for 5 days
[3] = target: T1, α7 AChRs on the surface of cells in the α7/RIC-3 line (Homo sapiens, UniProt P36544); experiment: Upregulation of surface 125I αBgt binding in the α7/RIC-3 cell line; type: cell-based; details: single chemical chaperone
T1 construct: expressed in transfected cells

α7/RIC-3 cell line = experiment: Tolerability of chemical chaperones in α7/RIC-3 culture; type: cell-based, human; details: 6 mM, applied for longer periods than a few days

T1 sequence (P36544 23-502): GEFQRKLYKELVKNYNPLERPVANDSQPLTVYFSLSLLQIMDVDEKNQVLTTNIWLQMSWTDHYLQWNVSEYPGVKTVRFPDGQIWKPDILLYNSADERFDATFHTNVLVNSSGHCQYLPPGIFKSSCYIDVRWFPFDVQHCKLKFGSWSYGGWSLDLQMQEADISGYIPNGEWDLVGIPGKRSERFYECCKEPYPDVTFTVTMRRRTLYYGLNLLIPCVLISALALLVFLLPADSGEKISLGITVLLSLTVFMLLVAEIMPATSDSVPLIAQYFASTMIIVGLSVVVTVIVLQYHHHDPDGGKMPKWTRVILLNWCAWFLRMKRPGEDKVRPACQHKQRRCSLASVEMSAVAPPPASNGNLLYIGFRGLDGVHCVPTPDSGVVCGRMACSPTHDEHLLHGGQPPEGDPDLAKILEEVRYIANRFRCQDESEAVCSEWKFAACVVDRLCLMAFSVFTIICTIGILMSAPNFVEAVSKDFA

Expression of α7 AChRs on the cell surface [3] | Effect on 125I αBgt binding ([2]; rat hippocampal neurons (data not shown)) | SMILES | EC50 (Rat α7 AChRs) | Increase of α7 expression ([1]; 100 µM) | Increase of α7 AChR expression ([2]; at 20 days in culture) | Increase of α7 AChR expression ([2]; cultures only 1 week old) | Increase of 125I αBgt binding ([2]; long term treatment of primary cultures) | Concentration giving maximum upregulation ([2]; rat hippocampal neurons) | Increase of 125I αBgt binding to the cell surface ([1]; 24 hours, 10 µM) | Increase of α7 AChRs in the cell surface vs control ([1]; 24 hours, 300 µM) | Increase in expression of α7 AChRs on the cell surface, maximum ([1]; concentration-dependent) | Toxicity in culture (α7/RIC-3 cell line)
– | – | CC(=O)OCC[N+](C)(C)C [ACh] | 280 µM | – | – | – | – | – | – | – | – | –
greatly increased | – | CCCC(CCC)C(=O)O [VPA, valproic acid] | – | 7.3 fold | 57% | 68% | 60% | 0.5 mM | – | – | – | –
greatly increased | ineffective | O=C(O)CCCc1ccccc1 [PBA, 4-phenylbutyric acid] | – | – | – | – | – | – | 3 fold | 7.8 fold | up to 7.8 fold | toxic when applied for longer periods
